# Data taken from PMC10900215 (JACS Au, 2024).
# “And” between values parts separate entries of the source, which are not always exact repeats. Equal values may be shown once.
# Assays:
# [1] = tested on: METTL14; assay: Cellular degradation assay (Western blot), METTL14 in MOLM-13; format: cell-based, human; conditions: MOLM-13, 24 h, 2 μM compound
# How it was run: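 PROTACs or 0.1% DMSO vehicle applied to cells for 24h at 37 °C, 5% CO2 in RPMI 1640 with 10% FBS; RIPA lysates run on SDS-PAGE. Western blot for METTL3 or METTL14 against GAPDH or β-actin loading controls, with fluorescent secondary antibodies and densitometry quantification.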
# [2] = target: T1, METTL3-14 (Homo sapiens, UniProt Q86U44); assay: Cellular degradation assay (Western blot) in KASUMI-1; format: cell-based; parameters: METTL3–14 degradation up to 70% of the endogenous level; endogenous in cells; host or cells: MOLM-13, KASUMI-1, THP-1, NOMO-1; conditions: KASUMI-1, 2 μM, 24 h
# Description: (§1) MOLM-13, NOMO-1, THP-1, Kasumi-1, PC3, and DU145 cell lines were obtained from DSMZ-German Collection of Microorganisms and Cell Cultures GmbH. Cells were cultured in RPMI 1640 medium (11875093, Thermo Fisher Scientific) containing 10% FBS (16140071, Thermo Fisher Scientific) and 1% penicillin-streptomycin (15140122, Thermo Fisher Scientific) in 5% CO2 at 37 °C in a humidified incubator, with maintained cell densities at 0.5–1 × 10^6 cells/mL. All cell lines were tested negative for mycoplasma contamination (PCR-based assay by Microsynth, Switzerland).
# (§2) METTL3 (and METTL14) protein degradation was monitored by Western blot. Cells were treated with the indicated concentration of PROTACs or DMSO control (0.1% (v/v)) for 24h, 37 °C with 5% CO2. Samples were then collected and lysed with RIPA buffer with added protease inhibitors (11697498001, Roche). After SDS-PAGE, proteins were transferred to a nitrocellulose membrane, blocked (with 5% milk, 0.5% BSA in TBST buffer), and incubated overnight with primary antibodies. The following antibodies were used: GAPDH (no. 2118, Cell Signaling, 1:4000), β-actin (ab8226, Abcam, 1:2000), METTL3 (ab195352, Abcam, 1:1000), and METTL14 (ab220031, Abcam, 1:1000). Membranes were scanned using an LI-COR Odyssey DLx imager after incubation with appropriate secondary antibodies (antimouse IgG IRDye 680RD (926–68072, LI-COR, 1:10000) and goat anti-Rabbit IgG IRDye 800CW (926–32211, LI-COR, 1:10000)). Densitometry was performed in Image Studio Lite software and analyzed in GraphPad Prism 9.
# Target sequence in this assay (Q86U44 2-580 limits assumed): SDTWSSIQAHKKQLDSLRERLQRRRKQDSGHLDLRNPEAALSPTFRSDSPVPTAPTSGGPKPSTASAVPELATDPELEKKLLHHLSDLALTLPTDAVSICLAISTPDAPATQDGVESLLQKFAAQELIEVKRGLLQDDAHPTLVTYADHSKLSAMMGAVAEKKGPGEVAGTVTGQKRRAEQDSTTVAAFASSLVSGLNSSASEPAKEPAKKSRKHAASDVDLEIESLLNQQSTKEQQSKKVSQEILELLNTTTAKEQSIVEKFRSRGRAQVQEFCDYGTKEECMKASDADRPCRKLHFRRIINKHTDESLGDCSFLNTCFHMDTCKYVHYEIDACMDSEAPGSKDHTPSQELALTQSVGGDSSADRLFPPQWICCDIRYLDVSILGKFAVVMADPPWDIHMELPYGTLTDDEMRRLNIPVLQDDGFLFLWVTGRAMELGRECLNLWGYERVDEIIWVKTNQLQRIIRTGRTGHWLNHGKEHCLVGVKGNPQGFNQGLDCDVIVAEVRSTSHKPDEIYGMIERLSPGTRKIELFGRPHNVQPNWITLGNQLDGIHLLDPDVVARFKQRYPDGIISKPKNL
# Target sequence in this assay (Q9HCE5 whole entry partner): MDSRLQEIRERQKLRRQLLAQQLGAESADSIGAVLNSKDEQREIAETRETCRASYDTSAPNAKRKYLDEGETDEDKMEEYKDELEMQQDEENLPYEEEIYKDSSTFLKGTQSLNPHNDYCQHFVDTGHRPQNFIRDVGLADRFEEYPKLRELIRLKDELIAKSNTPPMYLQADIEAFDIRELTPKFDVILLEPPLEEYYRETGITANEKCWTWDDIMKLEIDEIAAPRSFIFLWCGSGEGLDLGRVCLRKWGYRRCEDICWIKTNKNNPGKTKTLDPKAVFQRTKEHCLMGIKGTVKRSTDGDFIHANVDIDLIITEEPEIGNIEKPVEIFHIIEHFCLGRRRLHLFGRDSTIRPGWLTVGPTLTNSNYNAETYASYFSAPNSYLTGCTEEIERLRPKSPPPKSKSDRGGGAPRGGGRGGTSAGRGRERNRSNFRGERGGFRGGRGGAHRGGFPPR
# [3] = Cell viability assay (CellTiter-Glo) on MOLM-13; format: cell-based; conditions: human, MOLM-13 cells, average of two biological replicates; for viability at 72 h, […]: 2.5 µM
# How it was run: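 MOLM-13 AML cells grown in RPMI 1640 with 10% FBS at 37 °C, 5% CO2. Viability read as ATP luminescence by CellTiter-Glo after 10 min at room temperature, with background from cell-free medium wells subtracted.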
# [4] = target: T1, METTL3-14; assay: biochemical; parameters: with the full-length complex, the recombinant complex construct pFastBacDual-StrepII-GFP-TEV-METTL3-His-TEV-METTL14 was expressed; StrepII (N); GFP (N); TEV site (N); made in house; host or cells: baculovirus/Sf9 insect cells; conditions: inhibition of catalytic activity of METTL3-14, binary FRET assay
# How it was run: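 Full-length human METTL3–METTL14 complex (StrepII-GFP-METTL3-His/METTL14) expressed in baculovirus/Sf9 cells and purified. Inhibition of METTL3 methyltransferase activity measured in a homogeneous time-resolved fluorescence (HTRF) enzyme assay; IC50 determined.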
# Target sequence in this assay (Q86U44 whole entry): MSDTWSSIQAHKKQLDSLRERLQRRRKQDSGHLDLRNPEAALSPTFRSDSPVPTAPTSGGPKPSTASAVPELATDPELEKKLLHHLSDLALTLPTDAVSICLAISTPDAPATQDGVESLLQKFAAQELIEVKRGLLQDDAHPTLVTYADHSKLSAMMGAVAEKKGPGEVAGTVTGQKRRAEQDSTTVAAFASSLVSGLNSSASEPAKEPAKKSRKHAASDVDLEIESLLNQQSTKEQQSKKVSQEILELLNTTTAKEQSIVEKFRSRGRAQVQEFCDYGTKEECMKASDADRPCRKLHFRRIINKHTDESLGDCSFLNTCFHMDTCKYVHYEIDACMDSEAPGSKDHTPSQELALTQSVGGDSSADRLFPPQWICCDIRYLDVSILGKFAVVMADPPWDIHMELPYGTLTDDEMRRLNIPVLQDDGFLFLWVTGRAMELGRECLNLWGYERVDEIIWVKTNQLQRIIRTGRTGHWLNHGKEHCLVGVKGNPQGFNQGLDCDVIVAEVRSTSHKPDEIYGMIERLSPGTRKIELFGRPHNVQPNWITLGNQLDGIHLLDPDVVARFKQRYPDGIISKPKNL
# Target sequence in this assay (Q9HCE5 whole entry, further chain): as the sequence (Q9HCE5 whole entry partner) above
# [5] = tested on: PC3 cell line; assay: Cell viability assay (CellTiter-Glo) on PC3; format: cell-based, human
# Description: as §1
# Cells were seeded in white clear-bottom 96-well plates at a density of 6–20 × 10^3 cells/well in 50 μL of the complete RPMI medium and treated with 50 μL of increasing concentrations of the indicated compounds dissolved in DMSO (final concentration of compounds 0.01–10 μM) or DMSO only as a negative control (0.01% (v/v)) and incubated for 72 h at 37 °C with 5% CO2. Cell viability was determined using a CellTiter-Glo luminescent cell viability assay (Promega) based on the detection of ATP according to the manufacturer’s instructions. 100 μL of the reagent was added to each well and incubated for 10 min at room temperature. The luminescence was recorded using a Tecan Infinite […] M1000 microplate reader from the top. Background luminescence value was obtained from wells containing the CellTiter-Glo reagent and medium without cells. The resulting data was analyzed in GraphPad Prism 9.
# [6] = target: T2, METTL3 (Homo sapiens, UniProt Q86U44); assay: Cellular degradation assay (Western blot) in DU145; format: cell-based; conditions: DU145, 2 μM, 24 h
# T2 construct: METTL3–14 degradation up to 70% of the endogenous level; endogenous in cells; host or cells: MOLM-13, PC3, DU145
# Description: as §1, §2
# [7] = target: T1, METTL3-14; assay: Cellular degradation assay (Western blot), METTL3 and/or METTL14 (METTL3–14) in MOLM-13; format: cell-based; parameters: METTL3–14 degradation up to 70% of the endogenous level; endogenous in cells; host or cells: MOLM-13, KASUMI-1, THP-1, NOMO-1; conditions: for concentration at which the highest degradation was observed: MOLM-13, five concentrations; for METTL3–14 levels in the presence of UZH2: MOLM-13, 2 μM PROTAC + 10 μM UZH2; for METTL3–14 degradation in the presence of lenalidomide: MOLM-13, 2 μM PROTAC + 10 μM lenalidomide; for degradation of METTL3 and/or METTL14: MOLM-13, 2 μM, 24 h, Western blot
# Description: MOLM-13, NOMO-1, THP-1, Kasumi-1, PC3, and DU145 cell lines were obtained from DSMZ-German Collection of Microorganisms and Cell Cultures GmbH. […] All cell lines were tested negative for mycoplasma contamination (PCR-based assay by Microsynth, Switzerland).
# METTL3 (and METTL14) protein degradation was monitored by Western blot. Cells were treated with the indicated concentration of PROTACs or DMSO control (0.1% (v/v)) for 24h, 37 °C with 5% CO2. […] After SDS-PAGE, proteins were transferred to a nitrocellulose membrane, blocked (with 5% milk, 0.5% BSA in TBST buffer), and incubated overnight with primary antibodies. […] Densitometry was performed in Image Studio Lite software and analyzed in GraphPad Prism 9.
# Target sequence in this assay (Q86U44 2-580 limits assumed): as the sequence (Q86U44 2-580 limits assumed) above
# Target sequence in this assay (Q9HCE5 whole entry partner): as the sequence (Q9HCE5 whole entry partner) above
# T2 sequence (Q86U44 2-580 limits assumed): as the sequence (Q86U44 2-580 limits assumed) above
# T2 sequence (Q9HCE5 whole entry partner): as the sequence (Q9HCE5 whole entry partner) above
Structure (SMILES),MOLM-13 West. blot at 24h 2 μM comp conc. Degradation (%) of METTL14 [1],degradation of both METTL3 and METTL14 relative to MOLM-13 [2],"viability at 72 h, 0.6 µM [3]","viability at 72 h, 1.25 µM [3]","viability at 72 h, […] [3]","viability at 72 h, 5 µM [3]","viability at 72 h, 10 µM [3]",IC50 [4],antiproliferative effect [5],effect on METTL3 level [6],degradation of the POI [2],"highest degradation in concentration dependence ([7]; MOLM-13, 0.1 μM)",concentration at which the highest degradation was observed [7],METTL3–14 levels in the presence of UZH2 [7],METTL3–14 degradation in the presence of lenalidomide [7],degradation of METTL3 and/or METTL14 [7]
CC1(C)CCN(Cc2cc(F)c(N3CC(=O)NC4(CCN(c5cc(NCC6CCN(C(=O)CCCNc7cccc8c7C(=O)N(C7CCC(=O)NC7=O)C8=O)CC6)ncn5)CC4)C3)cc2F)CC1 (stereo not drawn) [Compound 22],55 ± 11%,higher degradation,95.8%,97.8%,96.2%,88.4%,77.4%,11 ± 1 nM,antiproliferative effect,only a minor effect,,,,,,
CC1(C)CCN(Cc2cc(F)c(N3CC(=O)NC4(CCN(c5cc(NCCN6CCN(C(=O)CCCCCNc7cccc8c7C(=O)N(C7CCC(=O)NC7=O)C8=O)CC6)ncn5)CC4)C3)cc2F)CC1 (stereo not drawn) [Compound 30],,higher degradation,91.3%,90.9%,91.1%,82.5%,78.4%,27 ± 6 nM,antiproliferative effect,only a minor effect,70%,up to 60%,0.1 µM,,,
CC1(C)CCN(Cc2cc(F)c(N3CC(=O)NC4(CCN(c5cc(NCc6cccc(CNC(=O)CCCNc7cccc8c7C(=O)N(C7CCC(=O)NC7=O)C8=O)c6)ncn5)CC4)C3)cc2F)CC1 (stereo not drawn) [Compound 14],52% and 52 ± 6%,higher degradation,95.5%,97.5%,103%,102%,94.1%,11 ± 1 nM,,only a minor effect,,,1 µM,,,
CC1(C)CCN(Cc2cc(F)c(N3CC(=O)NC4(CCN(c5cc(NCC6CCN(C(=O)CCCCCNc7cccc8c7C(=O)N(C7CCC(=O)NC7=O)C8=O)CC6)ncn5)CC4)C3)cc2F)CC1 (stereo not drawn) [Compound 24],50 ± 13%,higher degradation,102%,95.2%,109%,104%,91%,58 ± 12 nM,antiproliferative effect,only a minor effect,,,,elevated levels of METTL3–14,did not observe any degradation,≥ 50%
CC1(C)CCN(Cc2cc(F)c(N3CC(=O)NC4(CCN(c5cc(NCc6cccc(CNC(=O)CCCCCCCCCCn7cc(CNc8cccc9c8C(=O)N(C8CCC(=O)NC8=O)C9=O)nn7)c6)ncn5)CC4)C3)cc2F)CC1 (stereo not drawn) [Compound 20],51% and 51 ± 10%,higher degradation,101%,94.6%,90.7%,89.5%,86.4%,200 ± 30 nM,,only a minor effect,,,,elevated levels of METTL3–14,did not observe any degradation,≥ 50%
